# Reference: the NIST ThermoML archive (doi:10.1021/je200195q)
# ± gives the expanded uncertainty stated by the source.
# Experiment: activity coefficient (dimensionless); of the first substance listed, at infinite dilution; xn = mol fraction of the nth substance listed
# Conditions: 101 kPa, Liquid, Chromatography, x1 = 0
smiles,measurement,setting,value
CCCCCCCCCC [decane] + CCCCCCCCCCn1cc[n+](CCCCCCCCCC)c1C.O=S(=O)([N-]S(=O)(=O)C(F)(F)F)C(F)(F)F,activity coefficient,323.1 K,3.56 ± 0.24
same,activity coefficient,333.15 K,3.46 ± 0.24
same,activity coefficient,343.15 K,3.33 ± 0.23
CCCCCCCCCC [decane] + CCCCCC[n+]1ccn(C)c1.FC(F)(F)C(F)(F)[P-](F)(F)(F)(C(F)(F)C(F)(F)F)C(F)(F)C(F)(F)F,activity coefficient,312.8 K,22.7 ± 1.6
same,activity coefficient,332.85 K,19 ± 1.3
same,activity coefficient,354.65 K,15.3 ± 1
CCCCCCCCCC [decane] + CCCCn1cc[n+](C)c1.O=S(=O)([N-]S(=O)(=O)C(F)(F)C(F)(F)F)C(F)(F)C(F)(F)F,activity coefficient,322.55 K,37.4 ± 2.6
same,activity coefficient,342.75 K,33.3 ± 2.3
same,activity coefficient,362.65 K,28 ± 1.9
ClCCl [dichloromethane] + CCCCCCCCCCn1cc[n+](CCCCCCCCCC)c1C.O=S(=O)([N-]S(=O)(=O)C(F)(F)F)C(F)(F)F,activity coefficient,323.1 K,0.33 ± 0.032
same,activity coefficient,333.15 K,0.341 ± 0.032
same,activity coefficient,343.15 K,0.351 ± 0.032
ClCCl [dichloromethane] + CCCCCC[n+]1ccn(C)c1.FC(F)(F)C(F)(F)[P-](F)(F)(F)(C(F)(F)C(F)(F)F)C(F)(F)C(F)(F)F,activity coefficient,312.8 K,0.66 ± 0.045
same,activity coefficient,332.85 K,0.699 ± 0.047
same,activity coefficient,354.65 K,0.707 ± 0.047
ClCCl [dichloromethane] + CCCCn1cc[n+](C)c1.O=S(=O)([N-]S(=O)(=O)C(F)(F)C(F)(F)F)C(F)(F)C(F)(F)F,activity coefficient,322.55 K,0.356 ± 0.033
same,activity coefficient,342.75 K,0.436 ± 0.035
same,activity coefficient,362.65 K,0.539 ± 0.039
ClCCl [dichloromethane] + CCn1cc[n+](C)c1.CS(=O)(=O)[O-],activity coefficient,312.55 K,0.471 ± 0.037
same,activity coefficient,322.45 K,0.531 ± 0.039
same,activity coefficient,332.45 K,1.3 ± 0.084
CCOCC [diethyl ether] + CCCCCCCCCCn1cc[n+](CCCCCCCCCC)c1C.O=S(=O)([N-]S(=O)(=O)C(F)(F)F)C(F)(F)F,activity coefficient,323.1 K,0.746 ± 0.049
same,activity coefficient,333.15 K,0.771 ± 0.05
same,activity coefficient,343.15 K,0.773 ± 0.051
CCOCC [diethyl ether] + CCCCCC[n+]1ccn(C)c1.FC(F)(F)C(F)(F)[P-](F)(F)(F)(C(F)(F)C(F)(F)F)C(F)(F)C(F)(F)F,activity coefficient,312.8 K,0.837 ± 0.054
same,activity coefficient,332.85 K,0.866 ± 0.055
same,activity coefficient,354.65 K,0.897 ± 0.057
CCOCC [diethyl ether] + CCCCn1cc[n+](C)c1.O=S(=O)([N-]S(=O)(=O)C(F)(F)C(F)(F)F)C(F)(F)C(F)(F)F,activity coefficient,322.55 K,1.72 ± 0.12
same,activity coefficient,342.75 K,1.7 ± 0.11
same,activity coefficient,362.65 K,1.65 ± 0.11
CCOCC [diethyl ether] + CCn1cc[n+](C)c1.CS(=O)(=O)[O-],activity coefficient,312.55 K,21.8 ± 1.5
same,activity coefficient,322.45 K,20.4 ± 1.4
same,activity coefficient,332.45 K,18 ± 1.2
CC(C)OC(C)C [diisopropyl ether] + CCCCCCCCCCn1cc[n+](CCCCCCCCCC)c1C.O=S(=O)([N-]S(=O)(=O)C(F)(F)F)C(F)(F)F,activity coefficient,323.1 K,1.12 ± 0.071
same,activity coefficient,333.15 K,1.23 ± 0.079
same,activity coefficient,343.15 K,1.23 ± 0.079
CC(C)OC(C)C [diisopropyl ether] + CCCCCC[n+]1ccn(C)c1.FC(F)(F)C(F)(F)[P-](F)(F)(F)(C(F)(F)C(F)(F)F)C(F)(F)C(F)(F)F,activity coefficient,312.8 K,1.59 ± 0.1
same,activity coefficient,332.85 K,1.7 ± 0.11
same,activity coefficient,354.65 K,1.72 ± 0.12
CC(C)OC(C)C [diisopropyl ether] + CCCCn1cc[n+](C)c1.O=S(=O)([N-]S(=O)(=O)C(F)(F)C(F)(F)F)C(F)(F)C(F)(F)F,activity coefficient,322.55 K,3.46 ± 0.24
same,activity coefficient,342.75 K,3.46 ± 0.23
same,activity coefficient,362.65 K,3.43 ± 0.23
CC(C)OC(C)C [diisopropyl ether] + CCn1cc[n+](C)c1.CS(=O)(=O)[O-],activity coefficient,312.55 K,84.5 ± 5.8
same,activity coefficient,322.45 K,74.2 ± 5.1
same,activity coefficient,332.45 K,67.7 ± 4.6
CCCCCCCCCCCC [dodecane] + CCCCCC[n+]1ccn(C)c1.FC(F)(F)C(F)(F)[P-](F)(F)(F)(C(F)(F)C(F)(F)F)C(F)(F)C(F)(F)F,activity coefficient,312.8 K,39.3 ± 2.7
same,activity coefficient,332.85 K,33.1 ± 2.3
same,activity coefficient,354.65 K,25.7 ± 1.8
CCCCCCCCCCCC [dodecane] + CCCCn1cc[n+](C)c1.O=S(=O)([N-]S(=O)(=O)C(F)(F)C(F)(F)F)C(F)(F)C(F)(F)F,activity coefficient,322.55 K,77.8 ± 5.3
same,activity coefficient,342.75 K,62 ± 4.2
same,activity coefficient,362.65 K,50.9 ± 3.5
